Marks after values point to notes of the source that are not given here.
What was measured:
[1] = tested on: HeLa tumor; assay: In vivo light-triggered prodrug activation and tumor inhibition; design: species or system BALB/c nude mice; settings: 8 mg/kg intravenous Day 1 and 6, no light
Procedure: Encouraged by the anti-proliferation effect and tumor retention capability, Os/BC NPs were considered as an applicable agent for light-triggered drug release and photoactivated cancer chemotherapy. The HeLa tumor-bearing mice were randomly divided into […] (n=5) when the tumors reached at around […]. PBS, free Cb (8 mg/kg), Os NPs (at the equivalent concentration of Os in Os/BC NPs), BC NPs (at the equivalent concentration of Cb) and Os/BC NPs (at the equivalent concentration of Cb) were intravenously injected on Day 1 (FIG. 6C). At 24 h post injection, NIR-light irradiation (690 nm, 300 mW/cm^2, 10 min) was applied topically onto the tumor area (FIG. 6D). The formulation injection and light irradiation were repeated on Day 6 and 7, respectively. For evaluating therapeutic efficacy, tumor volume was recorded within the treatment period. […] However, no statistical difference was found between Group 3 and Groups 1, 2, 4 and 5. […] Hematoxylin and eosin (H&E) staining assay was conducted to investigate the pathology of the tumors and organs. […]
The anti-tumor efficacy of the formulations in presence or absence of light was investigated with HeLa tumor-bearing mice. […] Tumor sizes and body weights were measured during the period, and the tumor volume was calculated as V=½×width^2×length. […]

[2] = Photophysical properties (UV-Vis absorption, emission, energy levels); format: physicochemical; settings: for λabs, max (S0-S1): S0-S1 (1MLCT) absorption; for λabs, max (S0-S1) / λabs, max (S0-T1): dichloromethane with 2% acetone, 10 μM; for λabs, max (S0-T1): S0-T1 (3MLCT, S-T) absorption; for E (absorption coefficient, S0-T1 band): at 688 nm (S0-T1); for Energy level T1 state: calculated from maximum T1 (phosphorescence) emission wavelength
Source text: The absorption peak at about 492 nm is identified as the singlet metal-to-ligand charge transfer (^1MLCT) absorption, also termed as singlet-singlet (S-S) absorption. […] The two twistable bromophenyl groups of the bromophenyl terpyridine ligands extend the S-T absorption from 650 nm to 750 nm with increased absorption coefficient.
CombiFlash Rf chromatography instrument was purchased from Teledyne ISCO (Lincoln, USA) for chemical purification. Light sources used in this study were purchased from Yuanming Laser (Ningbo, China) and Mightex (CA, USA). The purity verification and photolysis study were conducted with a high-performance liquid chromatography (HPLC) system (Agilent technologies, 1260), attached with C-18 columns which were obtained from Agilent (Santa Clara, California, United States). Nuclear magnetic resonance (NMR) spectroscopy was collected by Bruker AVANCE III HD 500 spectrometer (MA, US). Fluorescence, phosphorescence and UV-vis spectra were collected by a SpectraMax M4 microplate reader (Molecular Devices, CA, US). The particle size and surface charge were recorded by a dynamic light scattering (DLS) device, Zetasizer Nano-ZS90 (Malvern instruments, UK). Transmission electron microscope (TEM) imaging was conducted on a Hitachi HT7700 TEM (Tokyo, Japan). ACEA NovoCyte Quanteon flow cytometer (ACEA Biosciences, CA, USA) was used for flow cytometry. In vivo and ex vivo imaging of the mice were conducted with an In Vivo Imaging System (PerkinElmer, USA). Devices for animal study like including balance and vernier caliper were kindly provided by The Centre for Comparative Medicine Research (CCMR), The University of Hong Kong.

[3] = Stern-Volmer phosphorescence quenching assay (TTET from Os(bptpy)2^2+ to BODIPY-Cb); format: physicochemical
Procedure: The energy transfer quenching rate constants (kTTET) was measured by Stern-Volmer experiment. […] Oxygen was removed by nitrogen bubbling (50 mL/min) for 10 min.
Energy transfer quenching rate constants of this TTET process, quantified as kTTET, can be calculated based on the below equation (2)
(τ0: phosphorescence lifetime of Os(bptpy)2^2+ in N2-saturated solution without quencher.)
For Os(bptpy)2^2+, τ0=0.20 μs.

[4] = Encapsulation efficiency and loading capacity of Os/BC NP (HPLC); format: physicochemical; settings: component of Os/BC NP
Procedure: Flash nanoprecipitation method was used to fabricate the photosensitizer/prodrug-loading nanoparticles. […] Different formulations (Os NPs, BC NPs and Os/BC NPs) were then prepared with optimized ratios of components. Briefly, 224 μL of the mixed stock solution was added into 1.8 mL N2-saturated water under vortexing. The resulted solutions were added to dialysis bags (MW: 3400 Da) and dialyzed against 4 L of water for 24 h. The water out of dialysis bag was renewed every 8 h. The resulted solution of NPs was collected and filtrated with 220 nm filter. Finally, the NPs solutions were concentrated by ultrafiltration (Mw=100 kDa, 2000×g, 10 min) and stored at 4° C. until use. The concentrations of each component were measured by using HPLC. Loading capacity and encapsulation efficiency were calculated as follow: […]

[5] = in toluene, calculated by TD-DFT, referred to previous studies; cited from earlier work
[6] = N2-saturated solution without quencher; cited from earlier work

Compound | tumor volume (anti-tumor effect) [1] | λabs, max (S0-S1) [2] | λabs, max (S0-S1) ([2]; listed as Os(bptpy)2•2PF6) | λabs, max (S0-T1) [2] [nm] | λabs, max (S0-T1) ([2]; listed as Os(bptpy)2•2PF6) | E (absorption coefficient, S0-S1 band) ([2]; at 491 nm (S0-S1)) [M⁻¹ cm⁻¹] | E (absorption coefficient, S0-T1 band) [2] [M⁻¹ cm⁻¹] | E (absorption coefficient, S0-T1 band) ([2]; listed as Os(bptpy)2•2PF6) [M⁻¹ cm⁻¹] | Energy level S1 state ([2]; calculated by maximum S1 emission wavelength, E = 1240/λem, S1) | Energy level T1 state ([2]; E = 1240/λem) [eV] | Energy level T1 state ([2]; E = 1240/λem, listed as Os(bptpy)2•2PF6) | λem, max ([2]; λex = 491 nm) | λem, max ([2]; λex = 688 nm) | Quenching constant kq ([3]; 10 μM Os(bptpy)2^2+, quencher BODIPY-Cb 0-7.5 μM, N2) | TTET rate constant (kTTET) ([3]; energy transfer from T1 of Os(bptpy)2^2+ to T1 of BODIPY-Cb) | Encapsulation Efficiency [4] [%] | Loading Capacity [4] [%] | T1 lifetime [5] | τ0 phosphorescence lifetime [6] [μs]
O=C(O)CCCc1ccc(N(CCCl)CCCl)cc1 [chlorambucil] | did not exhibit detectable anti-tumor effect | – | – | – | – | – | – | – | – | – | – | – | – | – | – | – | – | – | –
Os (II) bromophenyl terpyridine complex [Os(bptpy)2^2+] | – | about 492 nm | 491 (S0-S1) nm | 688 | 688 (S0-T1) nm | 73500 | 26600 | 26600 | 2.56^h eV | 1.69 | 1.69^i eV | 498^c nm | 734^d nm | (5.491±0.282)×10^4 M^−1 | (2.72±0.14)×10^11 M^−1 s^−1 | 29.43 | 0.22 | 0.20^f μs | 0.20

Source: patent US20250000979A1, “TRIPLET-TRIPLET ENERGY TRANSFER WITH LIGHT EXCITATION AT LONG WAVELENGTHS AND METHODS THEREOF” (priority 2023, published 2025)
